The values below come from patent US8501955B2, “Acetamide derivatives as glucokinase activators, their process and medicinal application” (Advinus Therapeutics Private Limited, priority 2007, dated 2013).

pEC50: −log10 of the molar value.

The target of data set [1] is T1, purified human recombinant GK (Homo sapiens, UniProt P35557).
T1 sequence (P35557 1-465): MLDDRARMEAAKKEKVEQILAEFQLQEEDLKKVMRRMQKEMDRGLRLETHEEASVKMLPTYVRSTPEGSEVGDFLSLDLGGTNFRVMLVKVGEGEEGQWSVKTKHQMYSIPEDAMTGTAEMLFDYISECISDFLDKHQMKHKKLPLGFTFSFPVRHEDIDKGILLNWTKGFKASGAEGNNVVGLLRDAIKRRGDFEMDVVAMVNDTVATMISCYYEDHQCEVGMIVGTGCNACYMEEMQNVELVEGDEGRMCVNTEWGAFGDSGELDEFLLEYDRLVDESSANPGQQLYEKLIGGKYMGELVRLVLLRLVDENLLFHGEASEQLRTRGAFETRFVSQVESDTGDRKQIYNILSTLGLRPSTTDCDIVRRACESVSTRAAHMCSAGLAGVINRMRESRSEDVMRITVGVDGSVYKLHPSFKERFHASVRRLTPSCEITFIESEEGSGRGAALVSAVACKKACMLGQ
As to the kind of experiment: Glucokinase activity assay (coupled enzymatic GK/G6PD assay, NADH absorbance at 340 nm). The data set is classed as biochemical. The settings on record: for pEC50: EC50 of % change in S0.5 of glucokinase for glucose, sigmoidal fit, read-out: EC50 (with respect to % ΔS0.5); for Emax: Emax of % change in S0.5, vehicle S0.5 = 0%, 0 mM glucose = 100%, read-out: % Emax (with respect to % ΔS0.5). From the text:
The glucokinase (GK) assay is a coupled enzymatic assay. GK catalyzes the first step of glycolysis, the conversion of glucose to glucose-6-phosphate (G6P) in the presence of ATP. G6P in turn is converted by glucose-6-phosphate dehydrogenase (G6PD) to 6-phosphogluconate, a process that requires NAD, resulting in NADH formation. Since the GK-catalyzed step is the rate-limiting step of this coupled enzymatic process, the rate of accumulation of 6-phosphogluconate and NADH is directly proportional to the rate of glucose phosphorylation by GK. The rate of the GK-catalyzed reaction can therefore be measured by monitoring the increase in NADH absorbance at 340 nm.
The assay is carried out according to the protocol outlined in Hariharan et al (1997), Diabetes 46: 11-16. Briefly, the test compounds are incubated in a reaction mix containing 25 mM HEPES (pH 7.2), 10 mM MgCl2, 100 mM KCl, 5 mM ATP, 2 mM DTT, 0.5 mM NAD, 1 U/ml Leuconostoc mesenteroides G6PD, 0.3 U/ml of purified human recombinant GK, and different concentrations of glucose. Enzymatic activity is calculated from the initial reaction velocity, measured from the change in NADH absorbance as a function of time.
Compounds described in formula (I), in concentration ranges from 1.0 nM to […] are tested in the purified human recombinant glucokinase assay described above.
A compound is considered to be a glucokinase activator if it, in its testable range of concentrations, yields a higher rate of glucose phosphorylation than in its absence at a particular glucose concentration, for example at 5 mM glucose.
Compounds of general formula (I) are tested in the in vitro GK enzymatic assay to monitor dose-dependent effect on glucokinase activation (in kinetic mode), as described above, at various glucose concentrations. The S0.5 of glucokinase for glucose at different concentration of each compound of interest is calculated from the following modified version of the Michaelis-Menten equation, V=Vmax[S]^n/(S0.5^n+[S]^n), where [S] is the glucose concentration and n is the Hill coefficient (taken as 1.7 to account for the sigmoidal kinetics of glucokinase with respect to glucose). The S0.5 is plotted against the log of the compound concentration. The change in the S0.5 of glucokinase (ΔS0.5) for glucose is calculated by subtracting the S0.5 at each concentration of the compound from the S0.5 in the vehicle control. The ΔS0.5 is then normalized to a percent scale, where the S0.5 in the vehicle control is set to 0% and 0 mM glucose is set to 100%. The % ΔS0.5 is then plotted against the log of the compound concentration. The EC50 and Emax of % change in S0.5 is obtained from the sigmoidal fit of the data. Detailed protocol has been described in our copending application no. WO 2008/104994 which is incorporated herein by reference. Characterization data of some representative glucokinase activators of the present disclosure, which are illustrative but not limiting, are given in table 1 below.

Data set [2] relates to primary rat hepatocytes. As to the kind of experiment: Measurement of glycogen synthesis in primary rat hepatocytes. The data set is classed as cell-based. The following applies: Rattus norvegicus, Hepatocyte, 3 h, 10 μM compound, 10 mM glucose, fold increase over DMSO control. On the procedure: Primary hepatocytes are collected from male Wistar rats, and tested for viability by trypan blue exclusion. Primary hepatocytes cultures with viability greater than 95% are selected for the glycogen synthesis assay. The cells are seeded in a 48-well plate at a density of 200,000 cells/well in 250 μl Minimal Essential Medium (MEM) containing 10% foetal calf serum (FCS) and 1.7 μM insulin, and incubated for 4 hours at 37° C. to allow attachment. The medium is replaced with fresh MEM containing 10% FCS, 1.7 μM insulin and 10 nM dexamethasone, and the cells are incubated for 16 hours at 37° C. The medium is then replaced with fresh MEM (serum-free) containing 2 μCi/ml of D-[U^14C]-Glucose along with 10 μM of the compound in a final DMSO concentration of 0.1%. The final glucose concentration is brought to 10 mM by the addition of D-Glucose (MEM already contains 5 mM glucose). The cells are incubated for 3 hours at 37° C. The cells are washed twice with 150 mM NaCl, lysed with 0.1 N NaOH, and the lysate precipitated with 8% w/v trichloroacetic acid (TCA) and 1 mg/well unlabeled glycogen as carrier. Cell debris is pelleted by centrifugation, the supernatant is removed, and the glycogen is precipitated with 63% ethanol. After another round of centrifugation, the supernatant is removed, and the pellet containing the precipitated glycogen is dried overnight. De novo synthesized glycogen is estimated in a scintillation counter (MicroBeta Trilux, Perkin Elmer), and expressed as fold increase over DMSO control.
The protocol for the glycogen assay is based on the method described in “Biochem J. 1990 Feb. 15; 266(1): 91-102” with a few minor modifications. The protocol for isolation of primary rat hepatocytes is based on the method described in “Methods in Enzymology, Vol. III. pp 34-50. Ed. by S. P. Colowick and N. O. Kaplan. New York, Academic Press, 1957” with a few minor modifications.
Compounds described in formula (I), in concentration ranges from 1.0 nM to 500 μM, are tested in glycogen synthesis assay described above.

For data set [3] the following is noted: Kamata et al (2004) Structure 12: 429-438; cited from earlier work.

For `O=C(O)Cc1nc(NC(=O)C(Oc2ccc(F)cc2F)c2ccc(S(=O)(=O)C3CC3)cc2)sc1Cl` (single isomer, unassigned; (-)) [Example E1, (−)-{5-Chloro-2-[2-(4-cyclopropanesulfonyl-phenyl)-2-(2,4-difluorophenoxy)acetyl-amino]thiazol-4-yl}acetic acid], in data set [1], the negative-log EC50 (pEC50) is 5.81 and the Emax was 95%. In data set [2], this compound gave a fold induction at 10 µM of 8.1.

Consider `O=C(O)Cc1nc(NC(=O)C(Oc2ccc(F)cc2F)c2ccc(S(=O)(=O)C3CCCC3)cc2)sc1Cl` (single isomer, unassigned; (-)) [Example E2, (−)-{5-Chloro-2-[2-(4-cyclopentanesulfonyl-phenyl)-2-(2,4-difluorophenoxy)acetyl-amino]thiazol-4-yl}-acetic acid], for which, in data set [1], the negative-log EC50 (pEC50) is 6.43 and the maximal response (Emax) came to 95%. In data set [2], this compound returned a fold induction at 10 µM of 8.8.

As to `O=C(O)Cc1csc(NC(=O)C(Oc2ccc(F)cc2F)c2ccc(S(=O)(=O)C3CC3)cc2)n1` (single isomer, unassigned; (-)) [Example E3, (−){2-[2-(4-Cyclopropanesulfonylphenyl)-2-(2,4-difluorophenoxy)acetylamino]-thiazol-4-yl}acetic acid], in data set [1], the pEC50 was 5.63 and the Emax was 90%. The fold induction at 10 µM in data set [2] is 9.5.

Take `O=C(Nc1nc2cccnc2s1)C(OC1CCOCC1)c1ccc(S(=O)(=O)C2CC2)cc1` (single isomer, unassigned; (-)) [Example H10A, (−)2-(4-Cyclopropanesulfonyl-phenyl)-2-(tetrahydro-pyran-4-yloxy)-N-thiazolo[5,4-b]pyridin-2-yl-acetamide]: in data set [1], the negative logarithm of the EC50 (pEC50) is 6.82 and the Emax was found to be 94%. Further, the fold induction at 10 µM in data set [2] was found to be 4.1.

As for `O=C(Nc1ncc(F)s1)C(Oc1ccc(F)cc1F)c1ccc(S(=O)(=O)C2CC2)cc1` (centres unmarked) [Example A3, 2-(4-Cyclopropanesulfonylphenyl)-2-(2,4-difluorophenoxy)-N-(5-fluorothiazol-2-yl)-acetamide], in data set [1], the negative-log EC50 (pEC50) is 6.70 and the Emax turned out to be 95%. Also, the fold induction at 10 µM in data set [2] is 2.9.

In the case of `O=C(Nc1nccs1)C(Oc1ccc(F)cc1F)c1ccc(S(=O)(=O)C2CCCC2)cc1` (centres unmarked) [Example A10, 2-(4-Cyclopentanesulfonylphenyl)-2-(2,4-difluorophenoxy)-N-thiazol-2-yl-acetamide], in data set [1], the negative logarithm of the EC50 (pEC50) was 6.96 and the Emax worked out at 95%. This compound also yielded a fold induction at 10 µM in data set [2] of 4.3.

As to `COc1cnc(NC(=O)C(Oc2ccc(F)cc2F)c2ccc(S(=O)(=O)C3CC3)cc2)s1` (centres unmarked) [Example A75, 2-(4-Cyclopropanesulfonyl-phenyl)-2-(2,4-difluoro-phenoxy)-N-(5-methoxy-thiazol-2-yl)-acetamide], in data set [1], the pEC50 is 7.12 and the maximum response (Emax) came to 93%. The compound also had a fold induction at 10 µM in data set [2] of 7.1.

With `O=C(O)Cc1csc(NC(=O)C(Oc2ccc(F)cc2)c2ccc(S(=O)(=O)C3CC3)cc2)n1` (centres unmarked) [Example B1, {2-[2-(4-Cyclopropanesulfonylphenyl)-2-(4-fluorophenoxy)acetylamino]thiazol-4-yl}acetic acid], the melting point was in the range of 72 to 73 °C.

For the compound `O=C(O)Cc1nc(NC(=O)C(Oc2ccc(Cl)cc2)c2ccc(S(=O)(=O)C3CC3)cc2)sc1Cl` (centres unmarked) [Example B6, {5-Chloro-2-[2-(4-chlorophenoxy)-2-(4-cyclopropanesulfonylphenyl)-acetylamino]-thiazol-4-yl}acetic acid], in data set [1], the negative-log EC50 (pEC50) was 6.08 and the Emax is 90%. In data set [2], this compound returned a fold induction at 10 µM of 8.6.

On to `O=C(O)Cc1csc(NC(=O)C(Oc2ccc(F)cc2F)c2ccc(S(=O)(=O)C3CCCCC3)cc2)n1` (centres unmarked) [Example B16, {2-[2-(4-Cyclohexanesulfonylphenyl)-2-(2,4-difluorophenoxy)acetylamino]-thiazol-4-yl}acetic acid], for which, in data set [1], the pEC50 was 6.00 and the maximal response (Emax) worked out at 90%. This compound had a fold induction at 10 µM in data set [2] of 5.5.

As to `O=C(O)Cc1nc(NC(=O)C(Oc2ccc3[nH]ccc3c2)c2ccc(S(=O)(=O)C3CC3)cc2)sc1Cl` (centres unmarked) [Example B19, {5-Chloro-2-[2-(4-cyclopropanesulfonylphenyl)-2-(1H-indol-5-yloxy)acetylamino]thiazol-4-yl}acetic acid], in data set [1], the negative logarithm of the EC50 (pEC50) was 5.48 and the Emax is 95%. The fold induction at 10 µM in data set [2] was 3.3.

As to `CC(=O)Nc1cccc(OC(C(=O)Nc2nc(CC(=O)O)c(Cl)s2)c2ccc(S(=O)(=O)C3CC3)cc2)c1` (centres unmarked) [Example B20, {2-[2-(3-Acetylaminophenoxy)-2-(4-cyclopropanesulfonylphenyl)acetylamino]-5-chloro-thiazol-4-yl}acetic acid], in data set [1], the negative logarithm of the EC50 (pEC50) is 5.17 and the Emax turned out to be 90%. This compound also showed a fold induction at 10 µM in data set [2] of 6.8.

On to `O=C(O)c1cccc(Oc2cnc(NC(=O)C(OC3CCOCC3)c3ccc(S(=O)(=O)C4CC4)cc3)s2)c1` (centres unmarked) [Example B92, 3-{2-[2-(4-Cyclopropanesulfonyl-phenyl)-2-(tetrahydro-pyran-4-yloxy)-acetylamino]-thiazol-5-yloxy}-benzoic acid], for which, in data set [1], the pEC50 is 6.77 and the maximal effect (Emax) was 91%. Also, the fold induction at 10 µM in data set [2] worked out at 7.8.

On to `O=C(Nc1ncc(Oc2ccc(C(=O)N3CCC3)cc2)s1)C(OC1CCOCC1)c1ccc(S(=O)(=O)C2CC2)cc1` (centres unmarked) [Example G6], for which, in data set [1], the pEC50 is 6.96 and the Emax turned out to be 90%. For the same compound, the fold induction at 10 µM in data set [2] was determined as 6.2.

Turning to Ro-28-1675, the “hypoglycemia in animal efficacy models” value in data set [3] is given as “cause hypoglycemia”.
